{
  "source": "patent US20240358705A1",
  "about": "“COMPOSITIONS AND METHODS FOR TREATMENT OF CANCER” (Board of Supervisors of Louisiana State University and …, priority 2021, published 2024)",
  "key": {"[1]": {"test_system": "CD8 T cells", "assay": "XFe ATP rate assay, CD8 T cells", "assay_type": "cell-based, mouse", "conditions": "10 μM, 72 hours", "protocol": "(§1) Lymph nodes and spleen were isolated from wild-type C57BL/6N mice. Tissue was mechanically dissociated with the back of a syringe plunger and passed through a 70 M filter. […] Treated cells were incubated at 37° C., 5% CO2 for the designed study duration.\nTreated CD8 T cell were prepared following the in vitro T cell activation method and incubated for 72 hours at 37° C., 5% CO2. Treated BM-MDSCs were prepared followed the in vitro BM-MDSCs differentiation method. The XFe ATP rate assay preparation and analysis was conducted following the manufacturer's user guide and instructions. […] Treated cells were removed from culture, pelleted and resuspended in warm assay medium at a concentration of 3×10^6 cells/ml (1.5×10^5 cells/well) for CD8 T cells and 2.6×10^6 cells/ml (1.3×10^5 cells/well) for BM-MDSCs. Cells were adhered to the culture plate by centrifugation 200×G, for one minute with zero brake per the manufacturer's instructions for immobilization of non-adherent cells (Agilent, Santa Clara, CA). […] Results were procured using the Seahorse XF real-time ATP rate assay report generator."}, "[2]": {"conditions": "interstitial pulmonary fibrosis; cited from earlier work"}, "[3]": {"test_system": "CD8 T cells", "assay": "Annexin/PI apoptosis staining, CD8", "assay_type": "cell-based, mouse", "conditions": "3 μM or 10 μM, 72 hours, vs DMSO", "protocol": "as §1\n(§2) Treated CD3 T cells were prepared following the in vitro T cell activation method and incubated for 72 hours at 37° C., 5% CO2."}, "[4]": {"test_system": "B16-OVA", "assay": "In vivo therapeutic vaccination and tumor analysis", "set-up": "species or system mouse", "conditions": "30 mg/kg orally, with SIINFEKL in IFA vaccination and boosts", "protocol": "C57BL/6N mice were injected with 3×10^5 B16-OVA subcutaneously in the right flank. Five days after injection, mice were administered 200 μg cyclophosphamide dissolved in PBS by intraperitoneal injection to induce minor lymphodepletion. 48 hours after lymphodepletion, mice were intravenously adoptively transferred 2.5×10^6 labeled CD8 OT-I T cells. […]. Tumor growth rates were determined by tumor volume measurement beginning on day four and continuing three times per week for the study duration. Tumor volumes were determined by the ellipsoid formula: [(Length×Width^2)/2]."}, "[5]": {"test_system": "CD4 T cells", "assay": "Annexin/PI apoptosis staining, CD4", "assay_type": "cell-based, mouse", "conditions": "3 μM or 10 μM, 72 hours, vs DMSO", "protocol": "as §1, §2"}, "[6]": {"test_system": "B16-OVA", "assay": "In vivo adoptive cellular transfer, OT-I, B16-OVA tumor", "set-up": "species or system mouse", "protocol": "C57BL/6N mice were injected with 3×10^5 B16-OVA or B16 subcutaneously in the right flank. Five days after injection, mice were administered 200 μg cyclophosphamide monohydrate (Sigma #C73971G) dissolved in PBS by intraperitoneal injection to induce minor lymphodepletion. 48 hours after lymphodepletion, mice were intravenously adoptively transferred 2.5×10^6 CD8 OT-I or CD8 […] pre-treated ex vivo following the in vitro T cell activation method. Tumor growth rates were determined by tumor volume measurement beginning on day four and continuing three times per week for the study duration. Tumor volumes were determined by the ellipsoid formula: [(Length×Width^2)/2]. At the end of study, tumors were either fixed in 10% formalin or dissociated into a single-cell suspension for flow cytometry. […] Cells were then counted, filtered through a 70 μm cell strainer, and 10×10^6 cells were aliquoted and stained following the immune profiling by flow cytometry method."}, "[7]": {"test_system": "CD8 T cells", "assay": "2-NBDG glucose analog uptake assay", "assay_type": "cell-based, mouse", "conditions": "72 hours", "protocol": "as §1\nTreated CD3 T cells were prepared following the in vitro T cell activation method and incubated for 72 hours at 37° C., 5% CO2. […] (Thermo #N13195) Cells were then incubated for one hour at 37° C., 5% CO2. After incubation, T cells were washed, pelleted and stained with anti-CD4, anti-CD8, anti-CD3 following the immune profiling by flow cytometry method. Percent uptake was calculated using mean fluorescent intensity (MFI)."}, "[8]": {"test_system": "BM-MDSCs", "conditions": "differentiating BM-MDSCs, 3 μM or 10 μM, 72 hours", "protocol": "Bone marrow cells were isolated by flushing the tibia and femurs of wild-type C57BL/6N mice. […] To generate BM-MDSCs, 3×10^6 cells were plated in a 6-well dish and incubated at 37° C., 5% CO2 for 96 hours. For treatment, drugs were administered at either 3 μM or 10 μM concentrations and added to the BM-MDSC cell culture well 24 hours after plating.\nProtein concentration was quantified using a BCA protein assay kit (Thermo #A53225). […] of protein diluted with 1×LDS sample buffer (Life Technologies #B0008) and 1×sample reducing agent (Life Technologies #B0009), were denatured at 95° C. for 5 minutes. Denatured T cell protein was resolved using a 10% Bolt Bis-Tris plus protein gel (Thermo #NW00102BOX) and denatured BM-MDSC protein was resolved using an 8% Bolt Bis-Tris plus protein gel (Thermo #NW00082BOX). Gels were transferred to a PVDF membrane (Invitrogen #IB401002) using a seven-minute P3 program on an Invitrogen iBlot dry transfer system. Membranes were then blocked for one hour using 5% nonfat dry milk in TBS-T, washed three times with TBS-T and probed with primary antibody diluted with 5% BSA in TBS-T overnight at 4° C. with gentle rocking. Primary antibody was removed, and membranes were washed three times with TBS-T followed by secondary antibody diluted in TBS-T at room temperature for one hour with gentle rocking. […]"}, "[9]": {"test_system": "CD8 T cells", "assay": "CD8 T cell differentiation by flow cytometry", "assay_type": "cell-based, mouse", "conditions": "72 hours", "protocol": "as §1, with “duration. […] After staining, cells were pelleted, resuspended and run by a BD FACSymphony A3 flow cytometer.” for “duration.”"}, "[10]": {"conditions": "cited from earlier work"}},
  "data": [
    {"smiles": "O=c1nc(OC[C@@H]2COCCO2)cc2n1CCc1cc(C#CC3CC3)ccc1-2", "note": "[GLPG1205, 9-Cyclopropylethynyl-2-((S)-1-[1,4]dioxan-2-ylmethoxy)-6,7-dihydropyrimido[6,1-a]isoquinolin-4-one]", "values": [
      {"measurement": "percent of ATP generated by OXPHOS", "setting": "[1]; DMSO 49%", "result": 39.7, "unit": "%"},
      {"measurement": "percent of ATP generated by glycolysis", "setting": "[1]; DMSO 51%", "result": 60.3, "unit": "%"},
      {"measurement": "ATP production rate through mitochondrial OXPHOS (mitoATP)", "setting": "[1]; DMSO 392.74", "result": 486.75, "unit": "pmol/min"},
      {"measurement": "ATP production rate through glycolysis (glycoATP)", "setting": "[1]; DMSO 409.61", "result": 737.62, "unit": "pmol/min"},
      {"measurement": "total ATP production rate", "setting": "[1]; DMSO control 816.19", "result": 1224.27, "unit": "pmol/min"},
      {"measurement": "OCR, ECAR and PER", "setting": "[1]; vs DMSO", "result": "raises the overall OCR, ECAR, and PER"},
      {"measurement": "fibrosis, over the standard of care", "setting": "[2]", "result": "non-significant reduction in fibrosis"},
      {"measurement": "CD8 apoptosis (Annexin/PI)", "setting": "[3]", "result": "significantly reduced CD8 apoptosis"},
      {"measurement": "anti-tumor response (tumor growth rates) compared to the MC control group", "setting": "[4]", "result": "significantly stronger anti-tumor response"},
      {"measurement": "CD4 apoptosis (Annexin/PI)", "setting": "[5]", "result": "did not elicit any significant changes"},
      {"measurement": "anti-tumor response (tumor volume) after adoptive transfer of pre-treated CD8 OT-I T cells", "setting": "[6]; T cells pre-treated ex vivo with 10 μM, B16-OVA tumor bearing mice, vs sham and DMSO pre-treated", "result": "significantly enhanced this anti-tumor effect"},
      {"measurement": "intratumoral CD8 T cells positive for SIINFEKL tetramer", "setting": "[6]; T cells pre-treated with 10 μM, sham 20%, DMSO pre-treated 27.6%", "result": 53.7, "unit": "%"},
      {"measurement": "2-NBDG uptake (MFI), Log2 fold change compared to DMSO control", "setting": "[7]; 3 μM", "result": 0.19, "unit": "Log2 fold change"},
      {"measurement": "2-NBDG uptake, increase vs DMSO", "setting": "[7]; 3 μM", "result": 13.92, "unit": "%"},
      {"measurement": "2-NBDG uptake (MFI), Log2 fold change compared to DMSO control", "setting": "[7]; 10 μM", "result": 0.24, "unit": "Log2 fold change"},
      {"measurement": "2-NBDG uptake, increase vs DMSO", "setting": "[7]; 10 μM", "result": 17.74, "unit": "%"},
      {"measurement": "GPR84 expression", "setting": "[8]", "result": "only neared statistical significance"},
      {"measurement": "effector/memory CD8 compartment (CD62L−, CD44+), average increase compared to DMSO control", "setting": "[9]; 3 μM", "result": 23.57, "unit": "%"},
      {"measurement": "naïve CD8 T cell compartment (CD62L+, CD44−), average reduction compared to DMSO control", "setting": "[9]; 3 μM", "result": 32.54, "unit": "%"},
      {"measurement": "effector/memory CD8 compartment (CD62L−, CD44+), average increase compared to DMSO control", "setting": "[9]; 10 μM", "result": 37.93, "unit": "%"},
      {"measurement": "naïve CD8 T cell compartment (CD62L+, CD44−), average reduction compared to DMSO control", "setting": "[9]; 10 μM", "result": 74.69, "unit": "%"},
      {"measurement": "inflammatory response in ulcerative colitis", "setting": "[10]; in vivo", "result": "unable to improve the inflammatory response"},
      {"measurement": "adverse outcome in ulcerative colitis study", "setting": "[10]; led to the drug's discontinuation", "result": "worsening of colitis in certain patients"}
    ]}
  ]
}
